# Where two headings read alike, the source gives them in different places.
# Tests used:
# SNP cells [1] = assay: Kinetics experiment to assess apoptosis (IncuCyte Annexin V live-cell analysis); type: cell-based, canine; details: 5 J/cm^2
# Procedure: SNP cells were seeded at a density of (1–2) × 10^4 cells/well in 96-well plates and incubated for 24 h. The cells were then incubated with various concentrations of G-Ce6 (0, 0.064, 0.32, 1.6, or 8.0 μg/mL) for 24 h at 37 °C. After washing with fresh media, the cells were irradiated with 650-nm laser light (10 mW/cm^2, 5 J/cm^2) emitted by a semiconductor laser, using an optical fiber with a microlens delivery attachment. The cells were then stained with IncuCyte® Annexin V (Essen BioScience Inc., Ann Arbor, MI, USA) immediately following PDT, and incubated in a 5% CO2 atmosphere at 37 °C for 24 h. Images were automatically captured every 1 h for 24 h in phase-contrast and fluorescence modes using the IncuCyte® S3 system; phase contrast and green-phase images were obtained from the system. The total green object integrated intensity (green calibrated unit (GCU) × μm²/image) in an image was determined by object counting with IncuCyte® S3 Software according to the manufacturer’s protocol. In the present study, object counting is defined as the total sum of the intensity of Annexin V Green fluorescence in the image.
# SNP cells [2] = assay: Effect of a pan-caspase inhibitor on G-Ce6-PDT-induced cell death; type: cell-based, canine; details: 8 μg/mL G-Ce6; 10 μM Z-VAD-FMK; 5 J/cm^2
# Procedure: SNP cells were incubated with 8 μg/mL G-Ce6 for 24 h in the presence (10 μM) or absence of Z-VAD-FMK (Medical & Biological Laboratories Co. Ltd., Aichi, Japan), which is a pan-caspase inhibitor. After washing with fresh media, the cells were irradiated with 650-nm laser light (10 mW/cm^2, 5 J/cm^2) emitted by a semiconductor laser, using an optical fiber with a microlens delivery attachment. Apoptosis was assessed at 4 h after laser irradiation using the Muse Annexin V and Dead Cell Assay kit.
# [3] = Pharmacokinetics after intravenous administration in healthy dogs; type: in vivo; details: beagle, dog, plasma, i.v.; for Vd: read-out: Vdss
# Procedure: (§1) The animal protocol using healthy beagle dogs was approved by the Animal Research Committee of the Tottori University (project number: 17-T-3). For the pharmacokinetic crossover study, 6, 3, and 1 healthy beagle dogs were intravenously administered G-Ce6 at a dose of 2, 5, and 20 mg/kg, respectively. The ages of the healthy dogs (3 males and 3 females) ranged from 6–12 years old (mean and median, 8.6 and 7.5 years, respectively); the dogs weighed 8.7–11.2 kg (mean and median, 10.2 and 10.5 kg, respectively).
# The volume of G-Ce6 required to achieve the desired doses was diluted with 0.5% saline to obtain a total injection volume of 10 mL. The full injection volume was intravenously administered over 10 min at a rate of 60 mL/h using an appropriate syringe pump.
# Blood samples were collected at 0, 10, and 30 min, and 1, 3, 6, and 24 h after the end of G-Ce6 injection. The samples were mixed with heparin in plastic tubes and centrifuged at 600 × g for 5 min at 4 °C; 0.2 mL of plasma from each centrifuged sample was transferred to Eppendorf tubes. The collected plasma samples were kept in the dark to avoid light exposure until assay initiation. For fluorescence measurement, plasma was read on a Fluorescence Spectrometer SH-9000Lab (excitation, 405 nm and emission, 665 nm; Hitachi High-Technologies Co., Tokyo, Japan). The concentration of G-Ce6 was determined by comparison with appropriate standards. The concentrations of G-Ce6 in the plasma were fitted to a two-compartment model and analyzed with a pharmacokinetic analysis program (http://www.pharm.kyoto-u.ac.jp/byoyaku/Kinetics/download.html). The pharmacokinetic parameters were calculated as follows: half-life (T1/2) = ln 2/β, where β is the slope of the elimination phase; volume of distribution at steady state (Vdss) = dose (A/α^2 + B/β^2)/((A/α) + (B/β))^2, where A and B are the intercepts of the distribution and elimination phases, respectively; α is the slope of the distribution phase; and clearance (CL) = dose/AUC, where AUC is the area under the curve, which was calculated using the trapezoidal method.
# [4] = General physical examination and blood analysis in dogs; type: in vivo, healthy beagle dogs; details: for ALP / ALT / AST / BUN / Cre / GGT / Glu: Post (1 day after administration)
# Procedure: as §1
# A general physical examination was performed on all dogs before and after PDT. Serum biochemistry analysis of glucose (Glu), AST, ALT, alkaline phosphatase (ALP), γ-glutamyltranspeptidase (GGT), blood urea nitrogen, and creatinine (Cre) was also performed for all dogs immediately before and 1 day after G-Ce6 administration.
# SNP cells [5] = assay: Photodynamic cytotoxicity in SNP cells (Cell Counting Kit-8); type: cell-based, canine; details: 650-nm laser, 1 J/cm^2, data not shown
# [6] = tested on: murine colon cancer cells; design: method as in PMID 29408755; details: light dose of 16 J/cm^2; read-out: IC50 against murine colon cancer cells; cited from earlier work
compound,measurement,setting,value
"CCC1=C(C)c2cc3[nH]c(cc4nc(c(CC(=O)OC)c5[nH]c(cc1n2)c(C)c5C(=O)OC)[C@@H](CCC(=O)OC)[C@@H]4C)c(C)c3C(C)OCCCS[C@@H]1O[C@H](CO)[C@@H](O)[C@H](O)[C@H]1O (stereo partly drawn) [G-Ce6, Methyl (7S,8S)-18-ethyl-5-(2-methoxy-2-oxoethyl)-7-(3-methoxy-3-oxopropyl)-2,8,12,17-tetramethyl-13-(1-(3-(((2S,3R,4S,5S,6R)-3,4,5-trihydroxy-6-(hydroxymethyl)tetrahydro-2H-pyran-2-yl)thio)propoxy)ethyl)-7H,8H-porphyrin-3-carboxylate]",Time after PDT at which GCU began to increase,SNP cells [1]; 0.32 μg/mL,1 to 3 h
same,Time after PDT at which GCU reached a maximum,SNP cells [1]; 0.32 μg/mL,10 h
same,Time after PDT at which apoptosis (GCU) reached a plateau,SNP cells [1]; 8 μg/mL,approximately 4 h
same,Total green object integrated intensity (GCU × μm²/image) after PDT,SNP cells [1]; <0.064 μg/mL,did not increase
same,G-Ce6-PDT-induced apoptosis and cell death in the presence of Z-VAD-FMK,SNP cells [2],could not be blocked
same,AUC,[3]; 5 mg/kg (n = 3),59700 ± 7870 ng·h/mL
same,Cmax,[3]; 5 mg/kg (n = 3),47000 ± 12200 ng/mL
same,clearance,[3]; 5 mg/kg (n = 3),1.41 mL/min/kg
same,half-life,[3]; 5 mg/kg (n = 3),2.84 ± 0.6 h
same,Vd,[3]; 5 mg/kg (n = 3),0.258 ± 0.0656 L/kg
same,AUC,[3]; 20 mg/kg (n = 1),235000 ng·h/mL
same,Cmax,[3]; 20 mg/kg (n = 1),82000 ng/mL
same,clearance,[3]; 20 mg/kg (n = 1),1.42 mL/min/kg
same,half-life,[3]; 20 mg/kg (n = 1),2.51 h
same,Vd,[3]; 20 mg/kg (n = 1),0.284 L/kg
same,AUC,"[3]; both sexes, 2 mg/kg (n = 6)",12000 ± 3180 ng·h/mL
same,Cmax,"[3]; both sexes, 2 mg/kg (n = 6)",15200 ± 4440 ng/mL
same,clearance,"[3]; both sexes, 2 mg/kg (n = 6)",2.93 mL/min/kg
same,half-life,"[3]; both sexes, 2 mg/kg (n = 6)",3.02 ± 0.58 h
same,Vd,"[3]; both sexes, 2 mg/kg (n = 6)",0.529 ± 0.189 L/kg
same,Changes in serum biochemical parameters,[4]; 2 mg/kg i.v.,No significant changes
same,"Major skin photosensitivity or acute toxicity (vomiting, diarrhea, salivation)",[4]; 2 mg/kg i.v.,no evidence
same,Tolerability in safety examination,[4]; 2 mg/kg i.v.,well tolerated
same,ALP,[4]; 2 mg/kg i.v.,154 ± 59.69 U/L
same,ALT,[4]; 2 mg/kg i.v.,40 ± 7.17 U/L
same,AST,[4]; 2 mg/kg i.v.,32 ± 4.72 U/L
same,BUN,[4]; 2 mg/kg i.v.,15.8 ± 4.20 mg/dL
same,Cre,[4]; 2 mg/kg i.v.,0.5 ± 0.09 mg/dL
same,GGT,[4]; 2 mg/kg i.v.,1.5 ± 2.35 U/L
same,Glu,[4]; 2 mg/kg i.v.,99.5 ± 17.85 mg/dL
same,Changes in serum biochemical parameters,[4]; 5 mg/kg i.v.,no significant changes
same,Side effects during administration,[4]; 5 mg/kg i.v.,Nausea was observed
same,ALP,[4]; 5 mg/kg i.v.,141.0 ± 47.04 U/L
same,ALT,[4]; 5 mg/kg i.v.,59.0 ± 9.52 U/L
same,AST,[4]; 5 mg/kg i.v.,31.0 ± 10.47 U/L
same,BUN,[4]; 5 mg/kg i.v.,13.4 ± 5.05 mg/dL
same,Cre,[4]; 5 mg/kg i.v.,0.5 ± 0.13 mg/dL
same,GGT,[4]; 5 mg/kg i.v.,5.0 ± 1.63 U/L
same,Glu,[4]; 5 mg/kg i.v.,96.0 ± 10.88 mg/dL
same,Levels of AST and ALT in blood,[4]; 20 mg/kg i.v.,Increases
same,Side effects during administration,[4]; 20 mg/kg i.v.,vomiting and weakness
same,ALP,[4]; 20 mg/kg i.v.,134.0 U/L
same,ALT,[4]; 20 mg/kg i.v.,135.0 U/L
same,AST,[4]; 20 mg/kg i.v.,55.0 U/L
same,BUN,[4]; 20 mg/kg i.v.,8.6 mg/dL
same,Cre,[4]; 20 mg/kg i.v.,0.5 mg/dL
same,GGT,[4]; 20 mg/kg i.v.,14.0 U/L
same,Glu,[4]; 20 mg/kg i.v.,107.0 mg/dL
same,Toxic dose level,[4]; i.v.,20 mg/kg
same,"Optimal dose, which did not cause any adverse effects","[4]; i.v., based on pharmacokinetics and safety examination",2 mg/kg
same,Cytotoxicity after 1 h incubation,SNP cells [5],No cytotoxicity was observed
same,IC50,[6],1.35 nM

# — paper PMC6562844, “A Basic Study of Photodynamic Therapy with Glucose-Conjugated Chlorin e6 Using Mammary Carcinoma Xenografts” (Cancers, 2019)
